Data on 20 compounds can be found in patent publication US20170334899A1, “AMINO-SUBSTITUTED ISOTHIAZOLES” (Bayer Pharma Aktiengesellschaft, priority 2014, published 2017).

As usually defined, the pIC50 is −log10 of the IC50, conventionally taken in molar units.

pIC50: −log10 of the molar value.

The assay concerns human cervical tumor cell line HeLa (ATCC CCL-2). Description: SAC-Formation - Nocodazole-Induced Assay. Type of assay: cell-based. Particulars: Homo sapiens, HeLa, 24 h, HeLa cells, nocodazole 0.1 μg/ml together with test compound, decrease of mitotic cells (phospho-histone H3 Ser10). In outline:
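Loss of phospho-histone H3 Ser10-positive cells, counted against Hoechst-stained nuclei by high-content imaging, marked mitotic breakthrough. Compounds (0.005–20 μM, 0.5% DMSO) were co-dosed with 0.1 μg/ml nocodazole onto HeLa cells for 24 h at 37 °C. Curves were fitted with a four-parameter Hill equation.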
Turning to `Cc1nsc(Nc2cnc3ccccc3n2)c1C(=O)Nc1cccc(C(=O)N[C@H](C(=O)O)[C@@H](C)OC(C)(C)C)c1` [Example 104, O-tert-Butyl-N-[3-({[3-methyl-5-(quinoxalin-2-ylamino)-1,2-thiazol-4-yl]-carbonyl}amino)benzoyl]threonine], the pIC50 is 5.74.

Regarding `Cc1nsc(Nc2ccc(C#N)cn2)c1C(=O)Nc1ccc(N[C@@H](C)C(=O)OC(C)(C)C)nc1` [Example 170, tert-butyl N-{5-[({5-[(5-cyanopyridin-2-yl)amino]-3-methyl-1,2-thiazol-4-yl}carbonyl)amino]pyridin-2-yl}alaninate], the pIC50 was 5.64.

`CCCN1CC[C@@H](Oc2ccc(NC(=O)c3c(C)nsc3Nc3cnc(C(F)(F)F)cn3)cn2)[C@@H](F)C1` [Example 140, N-(6-{[(3S,4R)-3-fluoro-1-propylpiperidin-4-yl]oxy}pyridin-3-yl)-3-methyl-5-{[5-(trifluoromethyl)pyrazin-2-yl]amino}-1,2-thiazole-4-carboxamide]: the pIC50 is 7.22. Take `Cc1nsc(Nc2cnc(C(F)(F)F)cn2)c1C(=O)Nc1ccc(C(=O)NCCN2CCCC(F)(F)C2)cc1` [Example 153, N-(4-{[2-(3,3-difluoropiperidin-1-yl)ethyl]carbamoyl}phenyl)-3-methyl-5-{[5-(trifluoromethyl)pyrazin-2-yl]amino}-1,2-thiazole-4-carboxamide]: the pIC50 is 7.19. Consider `Cc1nsc(Nc2cnc3ccccc3n2)c1C(=O)Nc1ccc(S(C)(=O)=O)cc1` [Example 115, 3-Methyl-N-[4-(methylsulfonyl)phenyl]-5-(quinoxalin-2-ylamino)-1,2-thiazole-4-carboxamide], for which the pIC50 was 5.92. For the compound `Cc1nsc(Nc2cnc3ccccc3n2)c1C(=O)Nc1cccc(C(=O)NCC(=O)O)c1` [Example 99, N-[3-({[3-Methyl-5-(quinoxalin-2-ylamino)-1,2-thiazol-4-yl]carbonyl}amino)benzoy]-glycine], the pIC50 is 5.96.

Consider `Cc1nsc(Nc2cnc(C(F)(F)F)cn2)c1C(=O)Nc1ccc(O[C@H]2CCN(CCC(F)(F)F)C[C@H]2F)nc1` [Example 146, N-(6-{[(3R,4S)-3-fluoro-1-(3,3,3-trifluoropropyl)piperidin-4-yl]oxy}pyridin-3-yl)-3-methyl-5-{[5-(trifluoromethyl)pyrazin-2-yl]amino}-1,2-thiazole-4-carboxamide], for which the pIC50 was 7.20. `Cc1nsc(Nc2cnc(C(F)(F)F)cn2)c1C(=O)Nc1ccc(OC[C@H]2CCN(CC(F)(F)F)C2)nc1` (racemic) [Example 133, 3-Methyl-N-(6-{[(SR)-1-(2,2,2-trifluoroethyl)pyrrolidin-3-yl]methoxy}pyridin-3-yl)-5-{[5-(trifluoromethyl)pyrazin-2-yl]amino}-1,2-thiazole-4-carboxamide]: the negative-log IC50 (pIC50) was 7.57. Regarding `Cc1nsc(Nc2cnc(C(F)(F)F)cn2)c1C(=O)Nc1ccc(C(=O)N2CCN(CC(F)F)CC2)cc1` [Example 154, N-(4-{[4-(2,2-difluoroethyl)piperazin-1-yl]carbonyl}phenyl)-3-methyl-5-{[5-(trifluoromethyl)pyrazin-2-yl]amino}-1,2-thiazole-4-carboxamide], the pIC50 is 6.15. Consider `Cc1nsc(Nc2cnc(C(F)(F)F)cn2)c1C(=O)Nc1ccc(C(=O)O)cc1` [Example 97, 4-{[(3-Methyl-5-{[5-(trifluoromethyl)pyrazin-2-yl]amino}-1,2-thiazol-4-yl)carbony]-amino}benzoic acid], for which the pIC50 was 7.62.

As to `Cc1nsc(Nc2cnc(C(F)(F)F)cn2)c1C(=O)Nc1ccc(O[C@@H]2CCN(CC(F)F)C[C@@H]2F)nc1` [Example 137, N-(6-{[(3S,4R)-1-(2,2-difluoroethyl)-3-fluoropiperidin-4-yl]oxy}pyridin-3-yl)-3-methyl-5-{[5-(trifluoromethyl)pyrazin-2-yl]amino}-1,2-thiazole-4-carboxamide], the negative logarithm of the IC50 (pIC50) is 7.47.

Consider `Cc1nsc(Nc2cncc(C(F)(F)F)n2)c1C(=O)Nc1ccc(F)c(OC2CCN(C(=O)OC(C)(C)C)CC2)c1` [Example 168, tert-butyl 4-(2-fluoro-5-{[(3-methyl-5-{[6-(trifluoromethyl)pyrazin-2-yl]amino}-1,2-thiazol-4-yl)carbonyl]amino}phenoxy)piperidine-1-carboxylate], for which the pIC50 was 7.77. With `Cc1nsc(Nc2cnc(C(F)(F)F)cn2)c1C(=O)Nc1ccc(O[C@@H]2CCN(CC(F)(F)F)C[C@@H]2F)nc1` [Example 138, N-(6-{[(3S,4R)-3-fluoro-1-(2,2,2-trifluoroethyl)piperidin-4-yl]oxy}pyridin-3-yl)-3-methyl-5-{[5-(trifluoromethyl)pyrazin-2-yl]amino}-1,2-thiazole-4-carboxamide] the figure was 6.96; with `Cc1nsc(Nc2cnc(C(F)(F)F)cn2)c1C(=O)Nc1ccc(OC[C@@H]2CCN(CC(F)(F)F)C2)nc1` [Example 128, 3-Methyl-N-(6-{[(3R)-1-(2,2,2-trifluoroethyl)pyrrolidin-3-yl]methoxy}pyridin-3-yl)-5-{[5-(trifluoromethyl)pyrazin-2-yl]amino}-1,2-thiazole-4-carboxamide], 7.82. With `Cc1nsc(Nc2cncc(C(F)(F)F)n2)c1C(=O)Nc1ccc(C(=O)NCCN2CCCC(F)C2)cc1` (centres unmarked) [Example 155, N-(4-{[2-(3-fluoropiperidin-1-yl)ethyl]carbamoyl}phenyl)-3-methyl-5-{[6-(trifluoromethyl)pyrazin-2-yl]amino}-1,2-thiazole-4-carboxamide] the figure was 5.77. Take `COc1ccc(NC(=O)c2c(C)nsc2Nc2ccc(C#N)cn2)c(N2CCOCC2)n1` [Example 173, 5-[(5-cyanopyridin-2-yl)amino]-N-[6-methoxy-2-(morpholin-4-yl)pyridin-3-yl]-3-methyl-1,2-thiazole-4-carboxamide]: the pIC50 was 5.72. With `Cc1nsc(Nc2cnc(C(F)(F)F)cn2)c1C(=O)Nc1ccc(OC2CCNCC2)nc1` [Example 6, 3-Methyl-N-[6-(piperidin-4-yloxy)pyridin-3-yl]-5-{[5-(trifluoromethyl)pyrazin-2-yl]amino}-1,2-thiazole-4-carboxamide] the figure was 4.85. Consider `CNS(=O)(=O)c1ccc(NC(=O)c2c(C)nsc2Nc2cnc3ccccc3n2)cc1` [Example 111, 3-Methyl-N-[4-(methylsulfannoyl)phenyl]-5-(quinoxalin-2-ylamino)-1,2-thiazole-4-carboxamide], for which the pIC50 was 6.96. With `Cc1nsc(Nc2cnc(C(F)(F)F)cn2)c1C(=O)Nc1ccc(O[C@H]2CCN(CC(F)F)C[C@H]2F)nc1` [Example 144, N-(6-{[(3R,4S)-1-(2,2-difluoroethyl)-3-fluoropiperidin-4-yl]oxy}pyridin-3-yl)-3-methyl-5-{[5-(trifluoromethyl)pyrazin-2-yl]amino}-1,2-thiazole-4-carboxamide] the figure was 7.44; with `Cc1nsc(Nc2cncc(C(F)(F)F)n2)c1C(=O)Nc1ccc(C(=O)NC2CCN(CC(F)(F)F)CC2)cc1` [Example 167, 3-methyl-N-(4-{[1-(2,2,2-trifluoroethyl)piperidin-4-yl]carbamoyl}phenyl)-5-{[6-(trifluoromethyl)pyrazin-2-yl]amino}-1,2-thiazole-4-carboxamide], 7.04.
